The source of these data is patent US4826973A, “Delta form of aztreonam and preparation thereof” (priority 1985, dated 1989).

Data set [1] in a line: Physical and processing (bulk) properties of crystalline forms. The class given is physicochemical. Conditions: TABLE II, crystalline forms of aztreonam.
Data set [2] is described as follows: Intrinsic dissolution rate of crystalline forms. The class given is physicochemical. Conditions: TABLE II, crystalline forms of aztreonam.
The conditions of data set [3]: as described for Ser. No. 282,636; cited from earlier work.
For data set [4] the following is noted: compared with α-form or simple salts of the compound; storage prior to conversion to β-form.

Turning to `C[C@H]1[C@H](NC(=O)/C(=N\OC(C)(C)C(=O)O)c2csc(N)n2)C(=O)N1S(=O)(=O)O` [α-Form, [3S-[3α(Z)4β]]-3-[[(2-amino-4-thiazolyl)[(1-carboxy-1-methylethoxy)imino]acetyl]amino]-4-methyl-2-oxo-1-azetidinesulfonic acid], in data set [1], the Density result is reported as “low”, the Flowability entry was “poor” and the “Surface Area” value was “high”. Besides, the “Intrinsic Dissolution Rate” value in data set [2] was “slow”.

For `C[C@H]1[C@H](NC(=O)/C(=N\OC(C)(C)C(=O)O)c2csc(N)n2)C(=O)N1S(=O)(=O)O` [β-Form, [3S-[3α(Z),4β]]-3-[[(2-amino-4-thiazolyl)-[(1-carboxy-1-methylethoxy)imino]acetyl]amino]-4-methyl-2-oxo-1-azetidinesulfonic acid], the “Hygroscopicity (background, earlier application)” value in data set [3] is reported as “substantially non-hygroscopic”. Besides, in data set [1], the Density result was “high”, the Flowability result is “good” and the “Surface Area” value is “low”. The “Intrinsic Dissolution Rate” value in data set [2] is reported as “fast”.

`C[C@H]1[C@H](NC(=O)/C(=N\OC(C)(C)C(=O)O)c2csc(N)n2)C(=O)N1S(=O)(=O)O` [γ-Form]: in data set [1], the Density entry is reported as “low”, the Flowability result is listed as “poor” and the “Surface Area” value was “high”. Further, in data set [2], the “Intrinsic Dissolution Rate” value was “fast”.

For `C[C@H]1[C@H](NC(=O)/C(=N\OC(C)(C)C(=O)O)c2csc(N)n2)C(=O)N1S(=O)(=O)O` [δ-Form, [3S-[3α(Z),4β]]-3-[[(2-amino-4-thiazolyl)[(1-carboxy-1-methylethoxy)imino]acetyl]amino]-4-methyl-2-oxo-1-azetidinesulfonic acid], the Shelf life result in data set [4] was “greater than that of the α-form, or for that matter simple salts of the compound”. Moreover, in data set [1], the Density entry is on record as “high”, the Flowability result is on record as “good” and the “Surface Area” value is “low”. Besides, in data set [2], the “Intrinsic Dissolution Rate” value was “fast”.
